Experiment [1] deals with T1, HBO1 (Homo sapiens, UniProt O95251).
T1 construct: gene KAT7; HBO1 (336-611), acyltransferase/catalytic domain, purified from E. coli
Nature of the experiment: isothermal titration calorimetry (supported by in vitro histone acetylation assay with purified HBO1). The format is binding. (In general: In ITC the heat of successive injections is recorded.)

The target of experiment [2] is T1, HBO1. Nature of the experiment: isothermal titration calorimetry (supported by in vitro histone lactylation assay with purified HBO1). The format is binding.

SMILES strings stand for the structures.

T1 sequence (O95251 336-611): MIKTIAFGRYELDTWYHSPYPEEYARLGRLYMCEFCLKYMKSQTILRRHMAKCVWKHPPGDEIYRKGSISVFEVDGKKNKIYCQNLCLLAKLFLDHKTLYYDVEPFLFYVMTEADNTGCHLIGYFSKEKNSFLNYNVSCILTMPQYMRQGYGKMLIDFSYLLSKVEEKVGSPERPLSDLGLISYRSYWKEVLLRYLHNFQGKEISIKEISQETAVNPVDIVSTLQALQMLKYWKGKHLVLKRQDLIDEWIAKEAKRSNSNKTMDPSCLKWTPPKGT

For `CC(=O)SCCNC(=O)CCNC(=O)[C@H](O)C(C)(C)COP(=O)(O)OP(=O)(O)OC[C@H]1O[C@@H](n2cnc3c(N)ncnc32)[C@H](O)[C@@H]1OP(=O)(O)O` [acetyl-CoA], at HBO1 [1], the affinity, expressed as Kd, was 1460 nM.
`C[C@H](O)C(=O)SCCNC(=O)CCNC(=O)[C@H](O)C(C)(C)COP(=O)(O)OP(=O)(O)OC[C@H]1O[C@@H](n2cnc3c(N)ncnc32)[C@H](O)[C@@H]1OP(=O)(O)O` [lactyl-CoA]: the Kd (commonly a measure of binding affinity in units of concentration) on HBO1 [2] stood at 520 nM.

Values taken from PMC11053077, “HBO1 catalyzes lysine lactylation and mediates histone H3K9la to regulate gene transcription” (Nature Communications, 2024).
